Assay results published in BindingDB's records for doi:10.1021/acs.jmedchem.8b00655 (University of Iowa, 2018).

Experiment: Binding affinity to BTN3A1 in human PBMC assessed as stimulation of Vgamma9 Vdelta2 T cells incubated for 3 days and measured after 11 days post compound removal by flow cytometry

Compared with CCOC(=O)CNP(=O)(CC/C=C(\C)CO)Oc1ccccc1 (stereo not given), COC(=O)CNP(=O)(CC/C=C(\C)CO)Oc1ccccc1 (stereo not given) is 4.2-fold higher in EC50: 0.36 nM for the first, 1.5 nM for the second.

C/C(=C\CCP(=O)(NCC(=O)OC(C)C)Oc1cccc2ccccc12)CO (stereo not given) and COC(=O)CNP(=O)(CC/C=C(\C)CO)Oc1cccc2ccccc12 (stereo not given) are within 1.5-fold of each other in EC50: 0.34 nM for the first, 0.44 nM for the second.

CCOC(=O)CNP(=O)(CC/C=C(\C)CO)Oc1cccc2ccccc12 (stereo not given) and CCOC(=O)CNP(=O)(CC/C=C(\C)CO)Oc1ccc2ccccc2c1 (stereo not given) are within 1.5-fold of each other in EC50: 0.36 nM for the first, 0.53 nM for the second.

C/C(=C\CCP(=O)(NCC(=O)OC(C)C)Oc1ccc2ccccc2c1)CO (stereo not given) and COC(=O)CNP(=O)(CC/C=C(\C)CO)Oc1ccc2ccccc2c1 (stereo not given) are within 1.5-fold of each other in EC50: 0.82 nM for the first, 0.58 nM for the second.

Compared with C/C(=C\CCP(=O)(NCC(=O)OC(C)C)Oc1ccccc1)CO (stereo not given), COP(=O)(CC/C=C(\C)CO)OC is higher in EC50: 1.1 nM for the first, over 10000 nM for the second. The first is the more potent here.
